What was measured:
smallflower flatsedge = assay: Test B flood test smallflower flatsedge; assay type: in vivo, Cyperus difformis
Outline: (§1)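 Plants were grown to the 2-leaf stage before treatment with test chemical, then held in a greenhouse for twelve to sixteen days. Injury was visually rated against untreated controls on a 0–10 scale, where 0 is no effect and 10 is complete control.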

pigweed = assay: Test B pre/postemergence pigweed; assay type: in vivo, Amaranthus retroflexus
Outline: (§2)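 Herbicidal effect was estimated by eye on a ten-point control scale after plants spent twelve to sixteen days in a greenhouse following soil or foliar treatment. Foliar sprays targeted plants at one to four leaves; all doses were formulated in a non-phytotoxic solvent with surfactant.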

blackgrass = assay: Test B pre/postemergence blackgrass; assay type: in vivo, Alopecurus myosuroides
Outline: as §2

cocklebur = assay: Test B pre/postemergence cocklebur; assay type: in vivo, Xanthium strumarium
Outline: as §2

wheat = assay: Test B pre/postemergence wheat; assay type: in vivo, Triticum aestivum
Outline: as §2

rape = assay: Test B pre/postemergence rape; assay type: in vivo, Brassica napus
Outline: as §2

soybean = assay: Test B pre/postemergence soybean; assay type: in vivo, Glycine max
Outline: as §2

sugar beet = assay: Test B pre/postemergence sugar beet; assay type: in vivo, Beta vulgaris
Outline: as §2

purple nutsedge = assay: Test B pre/postemergence purple nutsedge; assay type: in vivo, Cyperus rotundus
Outline: as §2

bamyardgrass = assay: Test B flood test barnyardgrass; assay type: in vivo, Echinochloa crus-galli
Outline: as §1

morningglory = assay: Test B pre/postemergence morningglory; assay type: in vivo, Ipomoea hederacea
Outline: as §2

giant foxtail = assay: Test B pre/postemergence giant foxtail; assay type: in vivo, Setaria faberii
Outline: as §2

wild oat = assay: Test B pre/postemergence wild oat; assay type: in vivo, Avena fatua
Outline: as §2

duck salad = assay: Test B flood test duck salad; assay type: in vivo, Heteranthera limosa
Outline: as §1

surinam grass = assay: Test B pre/postemergence surinam grass; assay type: in vivo, Brachiaria decumbens
Outline: as §2

bedstraw = assay: Test B pre/postemergence bedstraw; assay type: in vivo, Galium aparine
Outline: as §2

[1] = Rate 62 g/ha, headed Pre-emergence (flood test species), scale 0 to 10 (0 no effect, 10 complete control)
[2] = Rate 125 g/ha, Pre-emergence, flood test species, scale 0 to 10 where 0 is no effect and 10 is complete control
[3] = Rate 250 g/ha, Pre-emergence, flood-test species, scale 0 to 10, 0 is no effect, 10 is complete control
[4] = Preemergence, Rate 62 g/ha, scale of 0 to 10 where 0 is no effect and 10 is complete control
[5] = Preemergence, Rate 125 g/ha, 0 is no effect, 10 is complete control
[6] = Preemergence, Rate 250 g/ha, scale 0 to 10, 0 is no effect, 10 is complete control
[7] = Preemergence, Rate 500 g/ha, scale 0 to 10 (0 no effect, 10 complete control)
[8] = Rate 62 g/ha, Postemergence, scale of 0 to 10 where 0 is no effect and 10 is complete control
[9] = Rate 125 g/ha, Postemergence, scale 0 to 10
[10] = Rate 500 g/ha, Postemergence, scale 0 to 10
[11] = Rate 500 g/ha, headed Pre-emergence (flood test species), scale 0 to 10 (0 no effect, 10 complete control)

COc1nc(OC)nc(N(C(=O)n2oc(=O)n(-c3ccccc3C)c2=O)C(C)C)n1 [Compound 181]
0: S. Flatsedge plant response rating (smallflower flatsedge; [1]) | S. Flatsedge plant response rating (smallflower flatsedge; [2]) | S. Flatsedge plant response rating (smallflower flatsedge; [3]) | S. Flatsedge plant response rating (smallflower flatsedge; Rate 500 g/ha, Pre-emergence, flood test species, scale 0 to 10 (0 no effect, 10 complete control)) | Redroot pigweed plant response rating (pigweed; [4]) | Redroot pigweed plant response rating (0 to 10 scale) (pigweed; [5]) | Redroot pigweed plant response rating (pigweed; [6]) | Redroot pigweed plant response rating (pigweed; [7]) | Redroot pigweed plant response rating (pigweed; [8]) | Redroot pigweed plant response rating (pigweed; [9]) | Plant response rating (0 to 10; 0 is no effect, 10 is complete control), Redroot pigweed (pigweed; Rate 250 g/ha, Postemergence) | Redroot pigweed plant response rating (pigweed; [10]) | Blackgrass plant response rating (blackgrass; [4]) | Blackgrass plant response rating (0 to 10 scale) (blackgrass; [5]) | Blackgrass plant response rating (blackgrass; [6]) | Blackgrass plant response rating (blackgrass; [7]) | Blackgrass plant response rating (blackgrass; [8]) | Blackgrass plant response rating (blackgrass; [9]) | Plant response rating (0 to 10; 0 is no effect, 10 is complete control), Blackgrass (blackgrass; Rate 250 g/ha, Postemergence) | Blackgrass plant response rating (blackgrass; [10]) | Cocklebur plant response rating (cocklebur; [4]) | Cocklebur plant response rating (0 to 10 scale) (cocklebur; [5]) | Cocklebur plant response rating (cocklebur; [6]) | Cocklebur plant response rating (cocklebur; [7]) | Cocklebur plant response rating (cocklebur; [8]) | Cocklebur plant response rating (cocklebur; [9]) | Plant response rating (0 to 10; 0 is no effect, 10 is complete control), Cocklebur (cocklebur; Rate 250 g/ha, Postemergence) | Cocklebur plant response rating (cocklebur; [10]) | Wheat plant response rating (wheat; [4]) | Wheat plant response rating (wheat; [6]) | Wheat plant response rating (wheat; [7]) | Wheat plant response rating (wheat; [9]) | Plant response rating (0 to 10; 0 is no effect, 10 is complete control), Wheat (wheat; Rate 250 g/ha, Postemergence) | Wheat plant response rating (wheat; [10]) | Rape plant response rating (rape; [4]) | Rape plant response rating (0 to 10 scale) (rape; [5]) | Rape plant response rating (rape; [6]) | Rape plant response rating (rape; [7]) | Rape plant response rating (rape; [8]) | Rape plant response rating (rape; [9]) | Plant response rating (0 to 10; 0 is no effect, 10 is complete control), Rape (rape; Rate 250 g/ha, Postemergence) | Rape plant response rating (rape; [10]) | Soybean plant response rating (soybean; [4]) | Soybean plant response rating (0 to 10 scale) (soybean; [5]) | Soybean plant response rating (soybean; [6]) | Soybean plant response rating (soybean; [7]) | Soybean plant response rating (soybean; [8]) | Soybean plant response rating (soybean; [9]) | Plant response rating (0 to 10; 0 is no effect, 10 is complete control), Soybean (soybean; Rate 250 g/ha, Postemergence) | Soybean plant response rating (soybean; [10]) | Sugarbeets plant response rating (sugar beet; [4]) | Sugarbeets plant response rating (0 to 10 scale) (sugar beet; [5]) | Sugarbeets plant response rating (sugar beet; [6]) | Sugarbeets plant response rating (sugar beet; [7]) | Sugarbeets plant response rating (sugar beet; [8]) | Sugarbeets plant response rating (sugar beet; [9]) | Plant response rating (0 to 10; 0 is no effect, 10 is complete control), Sugarbeets (sugar beet; Rate 250 g/ha, Postemergence) | Sugarbeets plant response rating (sugar beet; [10]) | Nutsedge plant response rating (purple nutsedge; [4]) | Nutsedge plant response rating (0 to 10 scale) (purple nutsedge; [5]) | Nutsedge plant response rating (purple nutsedge; [6]) | Nutsedge plant response rating (purple nutsedge; [7]) | Nutsedge plant response rating (purple nutsedge; [8]) | Nutsedge plant response rating (purple nutsedge; [9]) | Plant response rating (0 to 10; 0 is no effect, 10 is complete control), Nutsedge (purple nutsedge; Rate 250 g/ha, Postemergence) | Nutsedge plant response rating (purple nutsedge; [10]) | Barnyardgrass plant response rating (bamyardgrass; [1]) | Barnyardgrass plant response rating (bamyardgrass; [2]) | Barnyardgrass plant response rating (bamyardgrass; [3]) | Plant response rating, Barnyardgrass (bamyardgrass; [11]) | Morningglory plant response rating (morningglory; [4]) | Morningglory plant response rating (0 to 10 scale) (morningglory; [5]) | Morningglory plant response rating (morningglory; [6]) | Morningglory plant response rating (morningglory; [7]) | Morningglory plant response rating (morningglory; [8]) | Morningglory plant response rating (morningglory; [9]) | Plant response rating (0 to 10; 0 is no effect, 10 is complete control), Morningglory (morningglory; Rate 250 g/ha, Postemergence) | Morningglory plant response rating (morningglory; [10]) | Giant foxtail plant response rating (giant foxtail; [4]) | Giant foxtail plant response rating (0 to 10 scale) (giant foxtail; [5]) | Giant foxtail plant response rating (giant foxtail; [6]) | Giant foxtail plant response rating (giant foxtail; [7]) | Giant foxtail plant response rating (giant foxtail; [8]) | Giant foxtail plant response rating (giant foxtail; [9]) | Plant response rating (0 to 10; 0 is no effect, 10 is complete control), Giant foxtail (giant foxtail; Rate 250 g/ha, Postemergence) | Giant foxtail plant response rating (giant foxtail; [10]) | Wild oats plant response rating (wild oat; [4]) | Wild oats plant response rating (wild oat; [6]) | Wild oats plant response rating (wild oat; [7]) | Wild oats plant response rating (wild oat; [9]) | Plant response rating (0 to 10; 0 is no effect, 10 is complete control), Wild oats (wild oat; Rate 250 g/ha, Postemergence) | Wild oats plant response rating (wild oat; [10]) | Ducksalad plant response rating (duck salad; [1]) | Ducksalad plant response rating (duck salad; [2]) | Ducksalad plant response rating (duck salad; [3]) | Plant response rating, Ducksalad (duck salad; [11]) | B. signalgrass plant response rating (surinam grass; [4]) | B. signalgrass plant response rating (0 to 10 scale) (surinam grass; [5]) | B. signalgrass plant response rating (surinam grass; [6]) | B. signalgrass plant response rating (surinam grass; [7]) | B. signalgrass plant response rating (surinam grass; [8]) | B. signalgrass plant response rating (surinam grass; Rate 125 g/ha, Postemergence, scale 0 (no effect) to 10 (complete control)) | Plant response rating, B. signalgrass (surinam grass; Rate 250 g/ha, Postemergence, scale 0 to 10, 0 is no effect, 10 is complete control) | B. signalgrass plant response rating (surinam grass; Rate 500 g/ha, Postemergence, scale 0 to 10, 0 no effect, 10 complete control) | Bedstraw plant response rating (bedstraw; [4]) | Bedstraw plant response rating (0 to 10 scale) (bedstraw; [5]) | Bedstraw plant response rating (bedstraw; [6]) | Bedstraw plant response rating (bedstraw; [8]) | Bedstraw plant response rating (bedstraw; [9]) | Plant response rating (0 to 10; 0 is no effect, 10 is complete control), Bedstraw (bedstraw; Rate 250 g/ha, Postemergence) | Bedstraw plant response rating (bedstraw; [10])
